Data on 1 compound can be found in US20090285773A1, “Hepatitis C Virus Inhibitors” (Bristol-Myers Squibb Company, priority 2008, published 2009).

Each structure is given as a SMILES string.

What all share (type): biochemical
Assay [1] deals with T1, HCV NS3/4A protease complex, H77 strain (1a genotype) (Hepatitis C virus genotype 1a, UniProt P27958, C1454S/C1711G).
T1 construct: DNA encoding the recombinant HCV NS3/4A protease complex (amino acids 1027 to 1711) for these strains; His tag (inferred from pET21b vector and Ni-NTA purification); made in house; host or cells: Escherichia coli BL21 (DE3)
The assay can be described thus: FRET peptide assay, HCV NS3/4A protease complex, H77 strain. An excerpt:
(§1) HCV NS3 protease complexes, derived from the BMS strain, H77 strain or J4L6S strain, were generated, as described below. These purified recombinant proteins were generated for use in a homogeneous assay (see below) to provide an indication of how effective compounds of the present disclosure would be in inhibiting HCV NS3 proteolytic activity.
(§2) Serum from an HCV-infected patient was obtained from Dr. T. Wright, San Francisco Hospital. An engineered full-length cDNA (compliment deoxyribonucleic acid) template of the HCV genome (BMS strain) was constructed from DNA fragments obtained by reverse transcription-PCR (RT-PCR) of serum RNA (ribonucleic acid) and using primers selected on the basis of homology between other genotype 1a strains. From the determination of the entire genome sequence, a genotype 1a was assigned to the HCV isolate according to the classification of Simmonds et al. (See P Simmonds, K A Rose, S Graham, S W Chan, F McOmish, B C Dow, E A Follett, P L Yap and H Marsden, J. Clin. Microbiol., 31(6), 1493-1503 (1993)). […]

In assay [2] the target is T2, human liver cathepsin B (Homo sapiens, UniProt P07858).
T2 construct: host or cells: human liver
The assay can be described thus: Specificity assay, cathepsin B. Conditions: read-out: Cathepsin B activity in the specificity assays. The procedure: The specificities of compounds of the present disclosure were determined against a variety of serine proteases: human neutrophil elastase (HNE), porcine pancreatic elastase (PPE) and human pancreatic chymotrypsin and one cysteine protease: human liver cathepsin B. In all cases a 96-well plate format protocol using a fluorometric Amino-Methyl-Coumarin (AMC) substrate specific for each enzyme was used as described previously (PCT Patent Application No. WO 00/09543) with some modifications to the serine protease assays. All enzymes were purchased from Sigma, EMDbiosciences while the substrates were from Bachem, Sigma and EMDbiosciences.
Compound concentrations varied from 100 to 0.4 μM depending on their potency. The enzyme assays were each initiated by addition of substrate to enzyme-inhibitor pre-incubated for 10 min at room temperature and hydrolysis to 15% conversion as measured on cytofluor. […]
The percentage of inhibition was calculated using the formula: […]

Assay [3] concerns the target T3, HCV NS3/4A protease complex, J4L6S strain (1b genotype) (Hepatitis C virus genotype 1b, UniProt O92972, C1454S/C1711G).
T3 construct: DNA encoding the recombinant HCV NS3/4A protease complex (amino acids 1027 to 1711) for these strains; His tag (inferred from pET21b vector and Ni-NTA purification); made in house; host or cells: Escherichia coli BL21 (DE3)
The assay can be described thus: FRET peptide assay, HCV NS3/4A protease complex, J4L6S strain.
Source text: as §1, §2

T3 sequence (O92972 1027-1711 C1454S/C1711G, one chain of several): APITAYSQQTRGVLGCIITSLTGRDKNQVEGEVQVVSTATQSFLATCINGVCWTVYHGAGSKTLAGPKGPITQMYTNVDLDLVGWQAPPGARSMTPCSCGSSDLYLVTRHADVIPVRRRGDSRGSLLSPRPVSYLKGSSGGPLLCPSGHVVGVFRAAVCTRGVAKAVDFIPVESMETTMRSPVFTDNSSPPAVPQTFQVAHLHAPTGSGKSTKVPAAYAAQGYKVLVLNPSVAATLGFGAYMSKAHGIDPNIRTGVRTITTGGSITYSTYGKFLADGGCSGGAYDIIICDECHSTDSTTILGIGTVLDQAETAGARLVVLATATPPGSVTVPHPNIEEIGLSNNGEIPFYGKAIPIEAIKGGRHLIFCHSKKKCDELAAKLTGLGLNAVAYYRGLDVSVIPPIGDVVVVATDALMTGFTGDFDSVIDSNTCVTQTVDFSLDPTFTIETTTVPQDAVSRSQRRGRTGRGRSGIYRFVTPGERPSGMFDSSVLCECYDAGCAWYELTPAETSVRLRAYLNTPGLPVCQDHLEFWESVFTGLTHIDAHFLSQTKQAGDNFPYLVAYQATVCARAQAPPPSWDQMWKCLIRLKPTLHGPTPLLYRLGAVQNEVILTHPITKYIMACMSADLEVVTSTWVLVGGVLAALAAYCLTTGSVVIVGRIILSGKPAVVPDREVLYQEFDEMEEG
T1 sequence (P27958 1027-1711 C1454S/C1711G, one chain of several): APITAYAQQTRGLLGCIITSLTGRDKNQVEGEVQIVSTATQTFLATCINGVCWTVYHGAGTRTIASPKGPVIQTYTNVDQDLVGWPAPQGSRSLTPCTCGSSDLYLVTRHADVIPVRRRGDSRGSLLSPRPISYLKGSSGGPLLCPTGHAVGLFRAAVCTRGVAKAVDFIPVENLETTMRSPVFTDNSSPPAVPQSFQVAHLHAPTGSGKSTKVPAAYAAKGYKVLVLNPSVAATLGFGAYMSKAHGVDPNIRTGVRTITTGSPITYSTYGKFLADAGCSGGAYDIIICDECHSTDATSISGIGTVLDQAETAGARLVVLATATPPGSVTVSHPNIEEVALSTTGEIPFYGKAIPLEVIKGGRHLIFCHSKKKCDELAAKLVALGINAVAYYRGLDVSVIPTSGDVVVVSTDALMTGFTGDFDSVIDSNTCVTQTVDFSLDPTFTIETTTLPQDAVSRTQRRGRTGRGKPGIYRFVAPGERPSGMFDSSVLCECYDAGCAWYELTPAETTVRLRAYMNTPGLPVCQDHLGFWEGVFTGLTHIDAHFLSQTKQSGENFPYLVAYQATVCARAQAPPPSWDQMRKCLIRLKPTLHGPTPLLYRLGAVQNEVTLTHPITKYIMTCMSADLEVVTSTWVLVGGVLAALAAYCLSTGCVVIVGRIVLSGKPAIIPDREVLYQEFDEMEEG

Take `COc1ccc2c(O[C@@H]3C[C@H]4C(=O)N[C@]5(C(=O)NS(=O)(=O)C6CC6)C[C@H]5/C=C\CCCCC[C@H](Nc5ccc(OC)nc5)C(=O)N4C3)nccc2c1` (single isomer, unassigned) [Compound 1]: the IC50 in assay [1] was 1.9 nM; in assay [2] it was greater than 25 µM; in assay [3] it was 1.2 nM.
